System: S. typhimurium (ATCC 14028)
Format: cell-based, Salmonella typhimurium
Settings: discs on MH agar, overnight
Protocol: Screening of NK-lysin peptides was carried out against gram-negative S. typhimurium (ATCC 14028) bacteria. Overnight cultivation of the bacteria was carried out at a temperature of 3TC. A bacterial suspension was created in 10 mM sodium phosphate buffer pH 7.0 having a density of (2×10^6 CFU ml^−1) and plated on Muller-Hinton (MH) agar plates to inoculate. After the plates were dry, antibiotics discs of various concentrations (0 to 150 μg/ml) of antibiotic or NK-lysin peptides were applied to the surface of the inoculated plates. The plates were cultured overnight at 3TC and observed for restriction of growth by determining the diameter of bacterial-free zones surrounding each disc. Ceftazidime antibiotic was employed as a positive control.

Compound | clear zone diameter [mm]
CC(C)(O/N=C(\C(=O)N[C@@H]1C(=O)N2C(C(=O)[O-])=C(C[n+]3ccccc3)CS[C@H]12)c1csc(N)n1)C(=O)O [ceftazidime, reference compound] | ~21
gentamicin [reference compound] | 28
